Source: patent US20180251431A1 (VERTEX PHARMACEUTICALS INCORPORATED, priority 2016, published 2018)

Test system: HEK293 cells
Assay: HEK293 VLCFA-LPC IC50 determination (13C-labeled C26:0 LPC by UHPLC/MS)
Format: cell-based, human
Details: Homo sapiens, HEK293, 48 h, average of one or more replicates; 13C-labeled C26:0 LPC, 48 hours; read-out: Average HEK293 IC50
Method in brief: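 Suspension HEK293 cells (final 0.5 million/mL after mixing with equal volume) incubated 48 hours with compound plus 13C-acetate (1.0 mg/mL in added media), shaking at 37° C. Lipids extracted with hexane/isopropanol or methanol, C13:0 LPC standard. UHPLC/MS of 13C-labeled C26:0 LPC (638.500/104.100 m/z); IC50 by four-parameter fit.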

Compared with O=C(Nc1ccn(-c2cnnc(O)c2)n1)C1(c2ccccc2F)CC1 [Compound 356, 1-(2-fluorophenyl)-N-[1-(6-hydroxypyridazin-4-yl)pyrazol-3-yl]cyclopropanecarboxamide], Cc1cc(-n2ccc(NC(=O)C3(c4ccccc4F)CC3)n2)cnc1F [Compound 376, N-[1-(6-fluoro-5-methyl-3-pyridyl)pyrazol-3-yl]-1-(2-fluorophenyl)cyclopropanecarboxamide] is lower in IC50: greater than 5000 nM for the first, 65 nM for the second. The second is the more potent here.

Going from Cc1cn(-c2ccccc2)nc1NC(=O)C1(c2cccc(F)c2)CCC1 [Compound 372, 1-(3-fluorophenyl)-N-(4-methyl-1-phenyl-pyrazol-3-yl)cyclobutanecarboxamide] to Cc1ccccc1C1(C(=O)Nc2ccn(-c3ccncc3)n2)CC1 [Compound 373, 1-(o-tolyl)-N-[1-(4-pyridyl)pyrazol-3-yl]cyclopropanecarboxamide], the IC50 falls from 3700 nM to 140 nM (26-fold). The second is the more potent here.

First: O=C(Nc1ccn(-c2ccncc2Cl)n1)C1(c2ccccc2F)CC1 [Compound 333, N-[1-(3-chloro-4-pyridyl)pyrazol-3-yl]-1-(2-fluorophenyl)cyclopropanecarboxamide]
Second: N#Cc1ccc(-n2ccc(NC(=O)C3(c4ccccc4F)CC3)n2)cn1 [Compound 326, N-[1-(6-cyano-3-pyridyl)pyrazol-3-yl]-1-(2-fluorophenyl)cyclopropanecarboxamide]
The IC50 of the first is lower: 950 nM for the first, greater than 5000 nM for the second.

O=C(Nc1ccn(-c2ccnc(C(F)(F)F)c2)n1)C1(c2ccccc2F)CC1 [Compound 324, 1-(2-fluorophenyl)-N-(1-(2-(trifluoromethyl)pyridin-4-yl)-1H-pyrazol-3-yl)cyclopropane-1-carboxamide] and CC(C)Oc1cc(-n2ccc(NC(=O)C3(c4ccccc4F)CC3)n2)ccn1 [Compound 342, 1-(2-fluorophenyl)-N-[1-(2-isopropoxy-4-pyridyl)pyrazol-3-yl]cyclopropanecarboxamide] cannot be ordered by IC50: greater than 5000 nM for the first, greater than 5000 nM for the second.

Going from COc1nccc(-n2ccc(NC(=O)C3(c4ccccc4F)CC3)n2)n1 [Compound 330, 1-(2-fluorophenyl)-N-[1-(2-methoxypyrimidin-4-yl)pyrazol-3-yl]cyclopropanecarboxamide] to COc1ncncc1-n1ccc(NC(=O)C2(c3ccccc3F)CC2)n1 [Compound 353, 1-(2-fluorophenyl)-N-[1-(4-methoxypyrimidin-5-yl)pyrazol-3-yl]cyclopropanecarboxamide], the IC50 rises from 260 nM to 2200 nM (8.5-fold). The first is the more potent here.

Same assay, conditions: Homo sapiens, HEK293, HEK293 cells; average of one or more replicates; read-out: Average HEK293 IC50

Going from O=C(Cc1ccccc1)Nc1ccn(-c2cncnc2)n1 [Compound 96, 2-phenyl-N-(1-pyrimidin-5-ylpyrazol-3-yl)acetamide] to O=C(Cc1ccc(Cl)cc1)Nc1ccn(-c2ccccc2)n1 [Compound 6, 2-(4-chlorophenyl)-N-(1-phenylpyrazol-3-yl)acetamide], the IC50 rises from 2400 nM to greater than 5000 nM. The first is the more potent here.

First: CC1(C)CC1(C(=O)Nc1ccn(-c2ccccc2)n1)c1ccccc1F (stereo not shown) [Compound 135, 1-(2-fluorophenyl)-2,2-dimethyl-N-(1-phenylpyrazol-3-yl)cyclopropanecarboxamide]
Second: O=C(Nc1ccn(-c2ccccc2)n1)[C@@]1(c2ccccc2)CC12CCC2 [Compound 146, (2S)-2-phenyl-N-(1-phenylpyrazol-3-yl)spiro[2.3]hexane-2-carboxamide]
The IC50 of the first is 7.8-fold higher: 680 nM for the first, 87 nM for the second. The second is the more potent here.

First: O=C(Nc1ccn(-c2ccc(Cl)c(F)c2)n1)C1(c2ccccc2)CC1 [Compound 196, N-[1-(4-chloro-3-fluoro-phenyl)pyrazol-3-yl]-1-phenyl-cyclopropanecarboxamide]
Second: O=C(Nc1ccn(-c2cncc(F)c2)n1)C1(c2ccccc2)CC1 [Compound 201, N-[1-(5-fluoro-3-pyridyl)pyrazol-3-yl]-1-phenyl-cyclopropanecarboxamide]
The IC50 of the first is higher: greater than 5000 nM for the first, 46 nM for the second.

Compared with Cc1nn(C(F)F)cc1-n1ccc(NC(=O)C2(c3ccccc3F)CC2)n1 [Compound 414, N-[1-[1-(difluoromethyl)-3-methyl-pyrazol-4-yl]pyrazol-3-yl]-1-(2-fluorophenyl)cyclopropanecarboxamide], O=C(Nc1ccn(-c2ccccc2F)n1)C1(c2ccccc2F)CC1 [Compound 186, 1-(2-fluorophenyl)-N-(1-(2-fluorophenyl)-1H-pyrazol-3-yl)cyclopropane-1-carboxamide] is lower in IC50: greater than 5000 nM for the first, 140 nM for the second. The second is the more potent here.

Cc1ccnn1CC(=O)Nc1ccn(-c2ccnc(F)c2)n1 [Compound 282, N-[1-(2-fluoro-4-pyridyl)pyrazol-3-yl]-2-(5-methylpyrazol-1-yl)acetamide] and O=C(Cc1ncccn1)Nc1ccn(-c2ccnc(F)c2)n1 [Compound 221, N-[1-(2-fluoro-4-pyridyl)pyrazol-3-yl]-2-pyrimidin-2-yl-acetamide] cannot be ordered by IC50: greater than 2000 nM for the first, greater than 5000 nM for the second.

First: O=C(Nc1ccn(-c2cncc(F)c2)n1)C1(c2ncccn2)CC1 [Compound 529, N-[1-(5-fluoro-3-pyridyl)pyrazol-3-yl]-1-pyrimidin-2-yl-cyclopropanecarboxamide]
Second: COc1cc(-n2ccc(NC(=O)C3(c4ncccn4)CC3)n2)ccn1 [Compound 407, N-[1-(2-methoxy-4-pyridyl)pyrazol-3-yl]-1-pyrimidin-2-yl-cyclopropanecarboxamide]
The IC50 of the first is lower: 1300 nM for the first, greater than 5000 nM for the second.

Going from O=C(Nc1ccn(-c2cncc(F)c2)n1)C1(c2ccc(F)cn2)CC1 [Compound 466, 1-(5-fluoro-2-pyridyl)-N-[1-(5-fluoro-3-pyridyl)pyrazol-3-yl]cyclopropanecarboxamide] to O=C(Nc1ccn(-c2cc(F)cc(F)c2)n1)C1(c2cnccn2)CC1 [Compound 493, N-[1-(3,5-difluorophenyl)pyrazol-3-yl]-1-pyrazin-2-yl-cyclopropanecarboxamide], the IC50 rises from 560 nM to greater than 5000 nM.

First: O=C(Nc1ccn(-c2ccncn2)n1)C1(c2ccncc2F)CC1 [Compound 278, 1-(3-fluoro-4-pyridyl)-N-(1-pyrimidin-4-ylpyrazol-3-yl)cyclopropanecarboxamide]
Second: O=C(Nc1ccn(-c2ccccn2)n1)C1(c2ccccc2F)CC1 [Compound 210, 1-(2-fluorophenyl)-N-[1-(2-pyridyl)pyrazol-3-yl]cyclopropanecarboxamide]
The IC50 of the first is higher: greater than 5000 nM for the first, 170 nM for the second.

Going from COc1ncc(-n2nc(NC(=O)C3(c4ccccc4F)CC3)cc2F)cc1F [Compound 442, N-[5-fluoro-1-(5-fluoro-6-methoxy-3-pyridyl)pyrazol-3-yl]-1-(2-fluorophenyl)cyclopropanecarboxamide] to Nc1ncc(-n2ccc(NC(=O)C3(c4ccccc4F)CC3)n2)cc1F [Compound 399, N-[1-(6-amino-5-fluoro-3-pyridyl)pyrazol-3-yl]-1-(2-fluorophenyl)cyclopropanecarboxamide], the IC50 falls from greater than 5000 nM to 280 nM.

O=C(Nc1ccn(-c2ccccc2)n1)[C@]1(c2ccccc2)CC12CCCC2 [Compound 145, (2R)-2-phenyl-N-(1-phenylpyrazol-3-yl)spiro[2.4]heptane-2-carboxamide] and O=C(Nc1ccn(-c2ccccc2)n1)C1(c2ccccc2)CCOCC1 [Compound 178, 4-phenyl-N-(1-phenylpyrazol-3-yl)tetrahydropyran-4-carboxamide] cannot be ordered by IC50: greater than 5000 nM for the first, greater than 5000 nM for the second.

Going from O=C(Cc1ccccc1F)Nc1ccn(-c2cccc(Cl)c2)n1 [Compound 130, N-[1-(3-chlorophenyl)pyrazol-3-yl]-2-(2-fluorophenyl)acetamide] to O=C(Cc1ccccc1F)Nc1ccn(-c2cccnc2)n1 [Compound 235, 2-(2-fluorophenyl)-N-[1-(3-pyridyl)pyrazol-3-yl]acetamide], the IC50 falls from 1500 nM to 320 nM (4.7-fold). The second is the more potent here.

Compared with CC1CC1(C(=O)Nc1ccn(-c2cc(F)cc(F)c2)n1)c1ncccc1F (stereo not shown) [Compound 508, N-[1-(3,5-difluorophenyl)pyrazol-3-yl]-1-(3-fluoro-2-pyridyl)-2-methyl-cyclopropanecarboxamide], Cc1ccc(-n2ccc(NC(=O)C3(c4ccccc4F)CC3)n2)cn1 [Compound 120, 1-(2-fluorophenyl)-N-[1-(6-methyl-3-pyridyl)pyrazol-3-yl]cyclopropanecarboxamide] is 8.7-fold higher in IC50: 71 nM for the first, 620 nM for the second.

First: O=C(Cc1ccc(F)c(C(F)(F)F)c1)Nc1ccn(-c2ccccc2)n1 [Compound 71, 2-[4-fluoro-3-(trifluoromethyl)phenyl]-N-(1-phenylpyrazol-3-yl)acetamide]
Second: O=C(Cc1ccccc1F)Nc1ccn(-c2ccncc2)n1 [Compound 14, 2-(2-fluorophenyl)-N-[1-(4-pyridyl)pyrazol-3-yl]acetamide]
The IC50 of the first is higher: greater than 5000 nM for the first, 580 nM for the second. The second is the more potent here.

Going from O=C(Nc1ccn(-c2ccnc(F)c2)n1)[C@@]1(c2ccccc2)CC12CCC2 [Compound 151, (2S)-N-[1-(2-fluoro-4-pyridyl)pyrazol-3-yl]-2-phenyl-spiro[2.3]hexane-2-carboxamide] to O=C(Nc1ccn(-c2cncc(F)c2)n1)C1(c2ccccc2)CC1(F)F (racemic) [Compound 420, 2,2-difluoro-N-(1-(5-fluoropyridin-3-yl)-1H-pyrazol-3-yl)-1-phenylcyclopropane-1-carboxamide], the IC50 rises from less than 50 nM to 100 nM.

CC(C)C(C(=O)Nc1ccn(-c2ccccc2)n1)c1ccccc1 (stereo not shown) [Compound 31, 3-methyl-2-phenyl-N-(1-phenylpyrazol-3-yl)butanamide] and COc1cccc(CC(=O)Nc2ccn(-c3ccccc3)n2)c1OC [Compound 7, 2-(2,3-dimethoxyphenyl)-N-(1-phenylpyrazol-3-yl)acetamide] cannot be ordered by IC50: greater than 2000 nM for the first, greater than 5000 nM for the second.

Same assay, conditions: Homo sapiens, HEK293, read-out: Average HEK293 IC50

O=C(Nc1ccn(-c2ccnc(F)c2)n1)C1(c2ccccc2)CC1(F)F (racemic) [Compound 169, 2,2-difluoro-N-(1-(2-fluoropyridin-4-yl)-1H-pyrazol-3-yl)-1-phenylcyclopropane-1-carboxamide] showed an IC50 of 52 nM.

Same assay, conditions: average of one or more replicates; 13C-labeled C26:0 LPC, 48 hours; read-out: Average HEK293 IC50

First: O=C(Nc1ccn(-c2cccc(Cl)c2)n1)C1(c2ccccc2)CC1(F)F (single isomer, unassigned) [Compound 438]
Second: O=C(Nc1ccn(-c2ccccc2)n1)C1(c2ccccc2)CC1(F)F (single isomer, unassigned) [Compound 367]
The IC50 of the first is 4.9-fold higher: 540 nM for the first, 110 nM for the second.
